Where “and” joins values, the source holds several entries; their conditions need not be identical. Equal entries are not always repeated.
Legend:
USP1/UAF1 [1] = molecular target: USP1/UAF1 (Homo sapiens, UniProt O94782); assay: gel-based K63-linked diubiquitin cleavage assay, USP1/UAF1; format: biochemical; conditions: IC50 USP1/UAF1, K63-linked diubiquitin substrate; NI = no significant inhibition at highest inhibitor concentration of 114 μM
USP46/UAF1 = USP46/UAF1 (Homo sapiens, UniProt P62068); assay: K63-linked diubiquitin cleavage assay, USP46/UAF1; format: biochemical
USP46/UAF1, sequence (P62068 whole entry): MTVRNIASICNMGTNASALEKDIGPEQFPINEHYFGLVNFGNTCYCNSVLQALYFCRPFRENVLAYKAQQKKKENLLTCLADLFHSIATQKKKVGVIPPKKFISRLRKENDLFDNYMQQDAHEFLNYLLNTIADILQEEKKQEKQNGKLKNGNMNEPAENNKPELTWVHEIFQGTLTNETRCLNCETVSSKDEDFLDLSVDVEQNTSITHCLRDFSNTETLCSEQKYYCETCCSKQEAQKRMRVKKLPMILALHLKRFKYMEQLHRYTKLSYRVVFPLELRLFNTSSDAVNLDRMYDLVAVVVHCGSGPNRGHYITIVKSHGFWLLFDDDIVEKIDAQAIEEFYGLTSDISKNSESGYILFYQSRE
USP46/UAF1, sequence (Q8TAF3 whole entry partner): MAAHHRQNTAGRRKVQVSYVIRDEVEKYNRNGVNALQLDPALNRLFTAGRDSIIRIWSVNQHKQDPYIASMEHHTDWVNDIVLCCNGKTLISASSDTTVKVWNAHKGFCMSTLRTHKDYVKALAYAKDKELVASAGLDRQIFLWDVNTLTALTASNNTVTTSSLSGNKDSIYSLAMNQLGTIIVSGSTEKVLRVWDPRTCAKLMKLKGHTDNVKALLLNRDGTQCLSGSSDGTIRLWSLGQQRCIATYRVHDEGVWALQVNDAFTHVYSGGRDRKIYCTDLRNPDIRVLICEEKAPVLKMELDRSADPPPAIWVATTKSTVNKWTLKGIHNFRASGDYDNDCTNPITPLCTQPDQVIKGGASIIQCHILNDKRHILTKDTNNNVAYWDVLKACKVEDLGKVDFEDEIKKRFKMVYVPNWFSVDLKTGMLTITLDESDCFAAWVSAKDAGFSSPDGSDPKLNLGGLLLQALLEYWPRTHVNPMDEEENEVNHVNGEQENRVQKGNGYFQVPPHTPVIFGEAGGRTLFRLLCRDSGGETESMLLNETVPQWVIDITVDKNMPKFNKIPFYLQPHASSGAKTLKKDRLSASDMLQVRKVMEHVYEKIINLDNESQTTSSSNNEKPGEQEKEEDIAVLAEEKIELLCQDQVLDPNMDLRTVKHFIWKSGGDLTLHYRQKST

caspase-1 = molecular target: T1, caspase-1 (Homo sapiens, UniProt P29466); assay: cysteine protease selectivity, caspase-1; format: biochemical
T1 sequence (P29466 120-297 limits assumed): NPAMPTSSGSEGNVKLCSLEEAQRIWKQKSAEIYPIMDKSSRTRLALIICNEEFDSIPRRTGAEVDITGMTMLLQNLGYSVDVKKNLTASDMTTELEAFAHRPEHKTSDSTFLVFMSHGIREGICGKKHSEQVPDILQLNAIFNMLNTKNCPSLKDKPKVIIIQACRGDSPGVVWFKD
T1 sequence (P29466 317-404 limits assumed): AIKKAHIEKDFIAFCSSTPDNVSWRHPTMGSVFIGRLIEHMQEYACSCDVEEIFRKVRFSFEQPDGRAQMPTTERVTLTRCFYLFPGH

caspase-3 = molecular target: T2, caspase-3 (Homo sapiens, UniProt P42574); assay: cysteine protease selectivity, caspase-3; format: biochemical
T2 sequence (P42574 29-175 limits assumed): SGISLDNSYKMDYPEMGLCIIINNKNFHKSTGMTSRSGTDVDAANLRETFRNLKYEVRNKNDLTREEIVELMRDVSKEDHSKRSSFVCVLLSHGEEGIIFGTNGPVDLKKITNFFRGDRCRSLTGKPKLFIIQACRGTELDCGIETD
T2 sequence (P42574 176-277 limits assumed): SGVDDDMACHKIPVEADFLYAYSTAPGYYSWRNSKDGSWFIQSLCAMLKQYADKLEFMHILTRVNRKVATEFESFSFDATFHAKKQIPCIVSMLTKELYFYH

caspase-6 = molecular target: T3, caspase-6 (Homo sapiens, UniProt P55212); assay: cysteine protease selectivity, caspase-6; format: biochemical
T3 sequence (P55212 24-179 limits assumed): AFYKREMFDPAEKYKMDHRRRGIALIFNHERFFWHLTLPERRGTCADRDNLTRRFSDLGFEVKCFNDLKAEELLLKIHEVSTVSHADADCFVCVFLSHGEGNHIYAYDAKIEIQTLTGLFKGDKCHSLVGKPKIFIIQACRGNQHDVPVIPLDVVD
T3 sequence (P55212 194-293 limits assumed): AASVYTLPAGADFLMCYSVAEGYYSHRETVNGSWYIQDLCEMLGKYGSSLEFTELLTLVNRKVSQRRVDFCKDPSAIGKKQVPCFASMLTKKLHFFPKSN

papain = molecular target: T4, papain (Carica papaya, UniProt P00784); assay: cysteine protease selectivity, papain; format: biochemical
T4 sequence (P00784 134-345): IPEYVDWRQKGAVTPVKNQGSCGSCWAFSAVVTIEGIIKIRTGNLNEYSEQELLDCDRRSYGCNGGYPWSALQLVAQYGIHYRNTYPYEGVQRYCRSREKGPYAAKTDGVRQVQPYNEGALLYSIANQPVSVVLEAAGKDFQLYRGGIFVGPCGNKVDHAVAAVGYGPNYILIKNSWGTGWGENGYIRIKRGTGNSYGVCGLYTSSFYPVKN

USP5 = molecular target: T5, USP5 (Homo sapiens, UniProt P45974); assay: K63-linked diubiquitin cleavage assay, USP5
T5 sequence (P45974 1-858): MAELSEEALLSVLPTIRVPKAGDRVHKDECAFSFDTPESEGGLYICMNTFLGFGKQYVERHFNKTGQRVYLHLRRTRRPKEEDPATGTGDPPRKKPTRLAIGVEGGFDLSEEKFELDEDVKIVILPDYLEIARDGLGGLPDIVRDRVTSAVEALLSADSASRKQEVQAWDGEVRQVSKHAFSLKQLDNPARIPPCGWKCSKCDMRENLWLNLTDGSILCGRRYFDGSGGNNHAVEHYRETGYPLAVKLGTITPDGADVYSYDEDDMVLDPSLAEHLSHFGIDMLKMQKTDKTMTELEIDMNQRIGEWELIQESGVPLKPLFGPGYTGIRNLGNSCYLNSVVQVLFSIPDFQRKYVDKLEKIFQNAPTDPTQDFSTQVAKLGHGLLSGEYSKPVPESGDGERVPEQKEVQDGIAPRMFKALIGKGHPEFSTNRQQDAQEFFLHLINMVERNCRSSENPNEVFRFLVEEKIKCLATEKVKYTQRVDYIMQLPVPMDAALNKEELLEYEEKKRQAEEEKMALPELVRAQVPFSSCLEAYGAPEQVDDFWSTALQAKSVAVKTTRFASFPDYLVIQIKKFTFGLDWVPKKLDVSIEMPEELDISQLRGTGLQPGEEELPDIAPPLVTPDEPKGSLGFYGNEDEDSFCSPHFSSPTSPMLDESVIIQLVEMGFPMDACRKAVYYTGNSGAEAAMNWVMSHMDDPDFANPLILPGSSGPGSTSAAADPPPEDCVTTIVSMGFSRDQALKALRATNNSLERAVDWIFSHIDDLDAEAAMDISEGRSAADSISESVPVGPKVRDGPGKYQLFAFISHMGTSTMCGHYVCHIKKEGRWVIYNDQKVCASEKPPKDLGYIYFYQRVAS

USP1/UAF1 [2] = molecular target: USP1/UAF1 (Homo sapiens, UniProt O94782+Q8TAF3); assay: reversibility of inhibition by rapid dilution; conditions: incubation at 10 times IC50, 100-fold rapid dilution
USP1/UAF1 (Homo sapiens, UniProt O94782+Q8TAF3), sequence (O94782 whole entry): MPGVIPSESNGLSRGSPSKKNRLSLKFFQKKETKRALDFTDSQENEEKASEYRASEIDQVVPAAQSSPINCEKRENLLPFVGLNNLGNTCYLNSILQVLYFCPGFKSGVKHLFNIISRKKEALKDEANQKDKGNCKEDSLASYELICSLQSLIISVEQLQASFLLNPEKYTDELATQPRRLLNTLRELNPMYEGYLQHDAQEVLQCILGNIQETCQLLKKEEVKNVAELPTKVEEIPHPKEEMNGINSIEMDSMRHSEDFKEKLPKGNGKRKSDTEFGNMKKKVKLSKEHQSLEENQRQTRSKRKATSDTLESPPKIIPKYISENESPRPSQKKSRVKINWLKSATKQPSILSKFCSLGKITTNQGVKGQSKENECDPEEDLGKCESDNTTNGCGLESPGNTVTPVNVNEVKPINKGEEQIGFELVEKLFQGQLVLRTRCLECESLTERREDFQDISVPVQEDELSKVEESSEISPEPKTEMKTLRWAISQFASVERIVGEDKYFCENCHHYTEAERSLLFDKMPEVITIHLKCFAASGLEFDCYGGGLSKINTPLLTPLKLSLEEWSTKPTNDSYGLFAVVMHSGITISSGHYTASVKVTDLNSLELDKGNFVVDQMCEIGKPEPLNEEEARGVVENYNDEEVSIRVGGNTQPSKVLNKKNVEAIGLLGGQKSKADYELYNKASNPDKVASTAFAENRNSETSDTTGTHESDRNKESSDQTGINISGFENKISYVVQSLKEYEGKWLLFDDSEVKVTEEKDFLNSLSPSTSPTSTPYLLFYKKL
USP1/UAF1 (Homo sapiens, UniProt O94782+Q8TAF3), sequence (Q8TAF3 whole entry): as the sequence (Q8TAF3 whole entry partner) above

Ub-PCNA in HEK293T cells = assay: Western blot of Ub-PCNA level in cells; format: cell-based, human
[3] = test system: Ub-FANCD2 in HEK293T cells; assay: Western blot of Ub-FANCD2 level in cells; format: cell-based, human

USP1/UAF1 (Homo sapiens, UniProt O94782), sequence (O94782 whole entry): as the sequence (O94782 whole entry) above
USP1/UAF1 (Homo sapiens, UniProt O94782), sequence (Q8TAF3 whole entry, further chain): as the sequence (Q8TAF3 whole entry partner) above

| Compound | IC50 (USP1/UAF1 [1]) | IC50 (USP46/UAF1) | IC50 (caspase-1) | IC50 (caspase-3) | IC50 (caspase-6) | IC50 (papain) | IC50 (USP5) | reversibility of inhibition (USP1/UAF1 [2]) | monoubiquitination of PCNA, single agent (Ub-PCNA in HEK293T cells) | percentage of FANCD2 monoubiquitinated [3] |
| --- | --- | --- | --- | --- | --- | --- | --- | --- | --- | --- |
| CC(=O)c1c(O)c(C)c(O)c(Cc2c(O)c3c(c(C(=O)/C=C/c4ccccc4)c2O)OC(C)(C)C=C3)c1O [Rottlerin, rottlerin] | ≤ 8 µM and 6 to 34 µM | 15 ± 1 µM | 5 to 45 µM | 5 to 45 µM | 5 to 45 µM | 5 to 45 µM | > 114 µM | irreversible inhibitor | – | – |
| N.N.[Cl][Pt][Cl] [Cisplatin, cisplatin] | – | – | – | – | – | – | – | – | a small, but significant, percent of Ub-PCNA was detected | approximately 25% |
